Laboratory results published in PubChem BioAssay AID248 (DTP/NCI, 2004).
Several values for one entry are separate records, joined by “and”; a condition that tells them apart may be missing. Equal values may be shown once. Inconclusive results and toxic doses are left out. No stated cut-off is given here; in the data, active means T/C of 150% or more; inactive means T/C below 125%.

Test system: L1210 leukemia ip in BDF1 mice, survival T/C
Test: NCI In Vivo Anticancer Drug Screen. Data for tumor model L1210 Leukemia (intraperitoneal) in B6D2F1 (BDF1) mice
Conditions: endpoint: mean survival time, higher = longer survival
Method in brief: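 Tumor was transplanted into mice, which were then dosed with test compound or vehicle alone. Survival was recorded for each group, and the treated figure was expressed relative to the control figure.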

[1] = dose: 50.0 mg/kg/injection, schedule: Q01DX009 (ip), vehicle: Klucel (hydroxypropylcellulose) (HPC)
[2] = dose: 100.0 mg/kg/injection, schedule: Q01DX001 (ip), vehicle: Klucel (hydroxypropylcellulose) (HPC)
[3] = dose: 100.0 mg/kg/injection, schedule: Q04DX003 (ip), vehicle: Klucel (hydroxypropylcellulose) (HPC)
[4] = dose: 200.0 mg/kg/injection, schedule: Q01DX001 (ip), vehicle: Klucel (hydroxypropylcellulose) (HPC)
[5] = dose: 200.0 mg/kg/injection, schedule: Q04DX003 (ip), vehicle: Klucel (hydroxypropylcellulose) (HPC)
[6] = dose: 400.0 mg/kg/injection, schedule: Q01DX001 (ip), vehicle: Klucel (hydroxypropylcellulose) (HPC)
[7] = dose: 400.0 mg/kg/injection, schedule: Q04DX003 (ip), vehicle: Klucel (hydroxypropylcellulose) (HPC)
[8] = dose: 100.0 mg/kg/injection, schedule: Q01DX009 (ip), vehicle: Klucel (hydroxypropylcellulose) (HPC)
[9] = dose: 200.0 mg/kg/injection, schedule: Q01DX009 (ip), vehicle: Klucel (hydroxypropylcellulose) (HPC)
[10] = dose: 200.0 mg/kg/injection, schedule: Q01DX001 (ip), vehicle: saline
[11] = dose: 400.0 mg/kg/injection, schedule: Q01DX001 (ip), vehicle: saline
[12] = dose: 400.0 mg/kg/injection, schedule: Q01DX009 (ip), vehicle: Klucel (hydroxypropylcellulose) (HPC)
[13] = dose: 100.0 mg/kg/injection, schedule: Q01DX001 (ip), vehicle: carboxymethylcellulose (CMC)
[14] = dose: 200.0 mg/kg/injection, schedule: Q01DX001 (ip), vehicle: carboxymethylcellulose (CMC)
[15] = dose: 400.0 mg/kg/injection, schedule: Q01DX001 (ip), vehicle: carboxymethylcellulose (CMC)

Measured: T/C

Oc1ccc2ccccc2c1N=Nc1nccs1
inactive: dose: 12.5 mg/kg/injection, schedule: Q01DX009 (ip), vehicle: Klucel (hydroxypropylcellulose) (HPC) 96 % of control | dose: 25.0 mg/kg/injection, schedule: Q01DX009 (ip), vehicle: Klucel (hydroxypropylcellulose) (HPC) 95 % of control | [1] 101 % of control | [2] 94 % of control | [3] 100 % of control | [4] 101 % of control | [5] 96 % of control | [6] 98 % of control | [7] 94 % of control

CCCCCCCCNC(=O)C1OC(n2cnc3c(N)ncnc32)C2OC(C)(C)OC12 (stereo not given)
inactive: dose: 100.0 mg/kg/injection, schedule: Q01DX005 (ip), vehicle: saline with Tween-80 94 % of control | dose: 200.0 mg/kg/injection, schedule: Q01DX005 (ip), vehicle: saline with Tween-80 102 % of control

CC1=CC(C)(C)NC(=S)N1c1ccc(N=Nc2ccccc2)cc1
inactive: dose: 334.0 mg/kg/injection, schedule: Q01DX Z (ip), vehicle: methylcellulose (MC) 91 % of control | dose: 500.0 mg/kg/injection, schedule: Q01DX Z (ip), vehicle: methylcellulose (MC) 92 % of control

O=C1c2ccccc2C(=O)c2c1ccc1c2CCCC1
inactive: [1] 91 % of control | [8] 94 % of control | [9] 100 % of control

CN1CN(c2ccccc2)C2(CCN(Cc3nc4ccccc4[nH]3)CC2)C1=O
inactive: dose: 75.0 mg/kg/injection, schedule: Q04DX003 (ip), vehicle: Klucel (hydroxypropylcellulose) (HPC) 100 % of control | dose: 150.0 mg/kg/injection, schedule: Q04DX003 (ip), vehicle: Klucel (hydroxypropylcellulose) (HPC) 107 % of control | dose: 300.0 mg/kg/injection, schedule: Q04DX003 (ip), vehicle: Klucel (hydroxypropylcellulose) (HPC) 105 % of control

COc1ccc(/C=N/NC(N)=S)cc1
inactive: dose: 32.0 mg/kg/injection, schedule: Q01DX009 (ip), vehicle: saline 101 % of control and 92 % of control | dose: 32.0 mg/kg/injection, schedule: Q01DX010 (ip), vehicle: saline 97 % of control and 91 % of control | dose: 64.0 mg/kg/injection, schedule: Q01DX009 (ip), vehicle: saline 98 % of control and 100 % of control | dose: 64.0 mg/kg/injection, schedule: Q01DX010 (ip), vehicle: saline 96 % of control and 91 % of control | dose: 64.0 mg/kg/injection, schedule: Q01DX010 (iv), vehicle: saline 92 % of control | dose: 100.0 mg/kg/injection, schedule: Q01DX009 (ip), vehicle: saline 104 % of control | dose: 100.0 mg/kg/injection, schedule: Q04DX003 (ip), vehicle: saline with Tween-80 95 % of control | dose: 128.0 mg/kg/injection, schedule: Q01DX009 (ip), vehicle: saline 97 % of control and 102 % of control | dose: 128.0 mg/kg/injection, schedule: Q01DX010 (ip), vehicle: saline 94 % of control and 95 % of control | dose: 128.0 mg/kg/injection, schedule: Q01DX010 (iv), vehicle: saline 92 % of control | [10] 94 % of control | dose: 200.0 mg/kg/injection, schedule: Q01DX009 (ip), vehicle: acetone 95 % of control | dose: 200.0 mg/kg/injection, schedule: Q01DX009 (ip), vehicle: saline 100 % of control | dose: 200.0 mg/kg/injection, schedule: Q04DX003 (ip), vehicle: saline with Tween-80 95 % of control | dose: 256.0 mg/kg/injection, schedule: Q01DX009 (ip), vehicle: saline 101 % of control and 109 % of control | dose: 256.0 mg/kg/injection, schedule: Q01DX010 (ip), vehicle: saline 97 % of control and 90 % of control | dose: 256.0 mg/kg/injection, schedule: Q01DX010 (iv), vehicle: saline 102 % of control | [11] 100 % of control | dose: 400.0 mg/kg/injection, schedule: Q01DX009 (ip), vehicle: acetone 88 % of control | dose: 400.0 mg/kg/injection, schedule: Q01DX009 (ip), vehicle: saline 98 % of control | dose: 400.0 mg/kg/injection, schedule: Q04DX003 (ip), vehicle: saline with Tween-80 102 % of control | dose: 800.0 mg/kg/injection, schedule: Q01DX001 (ip), vehicle: saline 96 % of control

Cc1ccc(OCCOc2ccc(NC(=O)CC(=O)c3cccc([N+](=O)[O-])c3)cc2)cc1
inactive: [8] 100 % of control | [3] 95 % of control | [9] 103 % of control | [5] 98 % of control | [12] 97 % of control | [7] 97 % of control

CCCCc1c(N)nc(N)nc1-c1ccccc1
inactive: [2] 112 % of control | [4] 105 % of control | [6] 94 % of control

Cn1ccnc1Oc1ccc(Cl)cc1
inactive: dose: 12.5 mg/kg/injection, schedule: Q04DX002 (ip), vehicle: Klucel (hydroxypropylcellulose) (HPC) 106 % of control | dose: 50.0 mg/kg/injection, schedule: Q04DX002 (ip), vehicle: Klucel (hydroxypropylcellulose) (HPC) 100 % of control

COC(=O)C1=C(NC(=O)Nc2ccc(Cl)cc2)OC(C)(C)C1c1ccc(Cl)cc1 (stereo not given)
inactive: dose: 12.5 mg/kg/injection, schedule: Q01DX001 (ip), vehicle: saline 92 % of control | dose: 12.5 mg/kg/injection, schedule: Q01DX009 (ip), vehicle: saline 86 % of control | dose: 12.5 mg/kg/injection, schedule: Q04DX003 (ip), vehicle: acetone 93 % of control | dose: 25.0 mg/kg/injection, schedule: Q01DX001 (ip), vehicle: saline 87 % of control | dose: 25.0 mg/kg/injection, schedule: Q01DX009 (ip), vehicle: saline 90 % of control | dose: 25.0 mg/kg/injection, schedule: Q04DX003 (ip), vehicle: acetone 100 % of control | dose: 50.0 mg/kg/injection, schedule: Q01DX001 (ip), vehicle: saline 86 % of control | dose: 50.0 mg/kg/injection, schedule: Q04DX003 (ip), vehicle: acetone 96 % of control

COC1(OC)C2(Cl)C3C4C5(OC(C)=O)C(=O)C3(OC(C)=O)C3C5C(Cl)(C41Cl)C32Cl (stereo not given)
inactive: dose: 100.0 mg/kg/injection, schedule: Q01DX001 (ip), vehicle: saline 100 % of control | [10] 96 % of control | [11] 96 % of control

Cc1cccc(OCc2ccccc2)n1
inactive: dose: 50.0 mg/kg/injection, schedule: Q01DX001 (ip), vehicle: carboxymethylcellulose (CMC) 103 % of control | [13] 105 % of control | [14] 100 % of control | [15] 100 % of control

CNC(=O)C(C)(C)c1ccccc1
inactive: [8] 97 % of control | [3] 96 % of control | [9] 95 % of control | [5] 95 % of control | [12] 97 % of control | [7] 95 % of control

Clc1ccccc1CC12CCCCC1N2 (stereo not given)
inactive: [3] 103 % of control | [5] 90 % of control | [7] 103 % of control

C=CCN(C)c1ccc(C(=O)OC)cc1
inactive: [13] 102 % of control | [14] 94 % of control | [15] 100 % of control

N#CCC(=O)N/N=C/c1ccccc1
inactive: dose: 100.0 mg/kg/injection, schedule: Q04DX002 (ip), vehicle: saline with Tween-80 97 % of control | dose: 200.0 mg/kg/injection, schedule: Q04DX002 (ip), vehicle: saline with Tween-80 101 % of control | dose: 400.0 mg/kg/injection, schedule: Q04DX002 (ip), vehicle: saline with Tween-80 101 % of control

COc1ccccc1OC(=O)Nc1cc([N+](=O)[O-])ccc1C
inactive: dose: 100.0 mg/kg/injection, schedule: Q01DX009 (ip), vehicle: saline with Tween-80 89 % of control | dose: 200.0 mg/kg/injection, schedule: Q01DX009 (ip), vehicle: saline with Tween-80 96 % of control | dose: 400.0 mg/kg/injection, schedule: Q01DX009 (ip), vehicle: saline with Tween-80 121 % of control
